Converted amounts (≈) assume the structure as drawn. Read-outs that look alike come from different tables or passages of the source. Where no end group is shown, it is not given here.
Test: Solubility study
Format: physicochemical
[1] = water, read-out: Solubility Water

Molecule | solubility (PBS, read-out: Solubility PBS) | solubility in water (water) | solubility [1] | solubility in aqueous buffers (aqueous buffers such as PBS)
CC(C)C[C@H](NC(=O)[C@H](CCC(N)=O)NC(=O)[C@H](Cc1ccc(O)cc1)NC(=O)[C@H](CCC(N)=O)NC(=O)[C@H](Cc1ccccc1)NC(=O)[C@H](CC(=O)O)NC(=O)[C@H](CC(C)C)NC(=O)[C@H](Cc1ccc(O)cc1)NC(=O)[C@H](CO)NC(=O)[C@H](CC(C)C)NC(=O)[C@H](CCCCN)NC(=O)[C@H](CCC(N)=O)NC(=O)[C@H](Cc1ccc(O)cc1)NC(=O)[C@@H](N)CCCCN)C(=O)N[C@@H](CC(=O)O)C(=O)O [G7K-1] | 60 µg/mL (≈ 30.7 µM) | improved water solubility | 380 µg/mL (≈ 195 µM) | –
CC(C)C[C@H](NC(=O)[C@H](CCC(N)=O)NC(=O)[C@H](Cc1ccc(O)cc1)NC(=O)[C@H](CCC(N)=O)NC(=O)[C@H](Cc1ccccc1)NC(=O)[C@H](CC(=O)O)NC(=O)[C@H](CC(C)C)NC(=O)[C@H](Cc1ccc(O)cc1)NC(=O)[C@H](CO)NC(=O)[C@H](CC(C)C)NC(=O)[C@H](CCCCN)NC(=O)[C@H](CCC(N)=O)NC(=O)[C@@H](N)Cc1ccc(O)cc1)C(=O)N[C@@H](CC(=O)O)C(=O)O [G7] | 120 µg/mL (≈ 65.8 µM) | water insoluble | – | weakly soluble
YQKLSYLDFQKQLD [G7K11] | 30 µg/mL | – | 130 µg/mL | –
YKKLSYLDFQYQLD [G7K2] | 240 µg/mL | highest solubility | 780 µg/mL | –
YQKLSYLDFQYQKD [G7K13] | 80 µg/mL | improved water solubility | 360 µg/mL | –
YQKLSYLDFQYQKDK [G7K15] | 80 µg/mL | – | 180 µg/mL | –

From patent publication US12582695B2, “Compositions and methods for treating glioma” (Instytut Biologii Doświadczalnej im. Marcelego Nenckiego …, priority 2018, dated 2026)
